The source of these data is US5670501A, “N-substituted 9-alkyladenines” (Discovery Therapeutics, Inc., priority 1994, dated 1997).

One experiment concerns the target adenosine A2 receptor. Briefly: Receptor affinity (radioligand binding), A2, [3H]NECA. Also noted: species or system bovine / guinea pig. Particulars: room temperature, 1 hour. How it is done: (§1) 1. Receptor Affinity Experiments (Radioligand Binding)
(§2) Tissues (bovine caudate, guinea pig cortex, guinea pig striatum) were homogenized with a Brinkman polytron and the membranes were collected by centrifugation at 40,000×g at 4° C. for 10 min. The membranes were washed by resuspension and centrifugation, resuspended, and incubated in the presence of 1 U/ml adenosine deaminase for 15-30 min. at 37° C. The membranes were diluted, centrifuged once, and resuspended to a final concentration of 0.5-2 mg protein/ml. Adenosine deaminase (0.1 U/ml) was included in the final resuspension. Assays were initiated by addition of membranes. The compounds of the present invention were subjected to the following experimental conditions: A1 determinations/incubated with [^3 H]CHA at room temperature for 2 hours, A2 determinations/incubated with [^3 H]NECA at room temperature for 1 hour. Assays were terminated by filtration, and the filters were counted in scintillation counters.

Experiment [1] deals with T1, adenosine A1 receptor (Cavia porcellus, UniProt P47745).
T1 construct: from tissue; host or cells: isolated guinea pig left atria
T1 sequence (P47745 1-326): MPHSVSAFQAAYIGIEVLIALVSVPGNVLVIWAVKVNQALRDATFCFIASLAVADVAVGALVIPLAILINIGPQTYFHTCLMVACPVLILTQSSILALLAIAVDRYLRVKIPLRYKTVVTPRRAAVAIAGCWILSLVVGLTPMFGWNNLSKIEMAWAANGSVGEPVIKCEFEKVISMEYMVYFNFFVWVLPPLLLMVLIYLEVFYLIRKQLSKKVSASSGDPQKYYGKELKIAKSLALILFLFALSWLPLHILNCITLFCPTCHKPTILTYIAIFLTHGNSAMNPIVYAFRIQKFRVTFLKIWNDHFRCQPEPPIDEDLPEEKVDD
As to the kind of experiment: A1 in vitro functional test: negative inotropic response, left atria, antagonism of NECA. The class given is cell-based, guinea pig. The settings on record: for Selectivity Ratio (A2 KB /A1 KB): functional; for Kb: guinea pig left atria, electrically evoked twitch, NECA agonist, 31° C, Schild plot, read-out: A1 KB (antagonist dissociation constant). How it is done: 2. Adenosine--A1 /A2 In Vitro Functional Tests
(A1 Assay: Negative inotropic response)-Guinea pig left atria were placed in organ baths filled with Krebs Henseleit solution gassed with 95% O2 and 5% CO2 and maintained at a temperature of 31° C. An initial resting tension of 1 gm. was placed on each tissue, which was allowed to equilibrate. Atria were stimulated electrically to produce twitch responses. A dose-response curve for the inhibition of the electrically-evoked twitch response was obtained by cumulative addition of the adenosine agonist […]. After the washout of the tissue, a fixed concentration of test compound was added and the tissue allowed to equilibrate for 1 hr. before cumulative additions of the adenosine agonist 5'-N-ethylcarboxamidoadenosine (NECA) to generate a new dose response curve. This procedure was repeated with different fixed concentrations of test compounds to generate a family of dose response curves. Schild plots were constructed from the resultant concentration-effect curves, and KB (antagonist dissociation constant) values were obtained. The results (see Table VII) are expressed as KB values (concentration of test compound such that one-half of the tissue adenosine receptor population is occupied by the test compound).

For experiment [2], the target named is T2, adenosine A1 receptor (Bos taurus, UniProt P28190).
T2 construct: were homogenized with a Brinkman polytron and the membranes were collected by centrifugation; from tissue; host or cells: bovine caudate membranes
T2 sequence (P28190 1-326): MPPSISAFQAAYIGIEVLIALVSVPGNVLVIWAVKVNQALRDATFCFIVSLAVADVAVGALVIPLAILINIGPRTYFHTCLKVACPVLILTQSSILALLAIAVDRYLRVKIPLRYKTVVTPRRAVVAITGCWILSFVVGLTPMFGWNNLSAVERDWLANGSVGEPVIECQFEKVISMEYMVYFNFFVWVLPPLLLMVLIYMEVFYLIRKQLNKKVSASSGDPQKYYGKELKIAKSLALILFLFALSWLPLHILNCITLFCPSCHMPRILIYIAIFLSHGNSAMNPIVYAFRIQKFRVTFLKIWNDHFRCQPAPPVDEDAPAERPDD
As to the kind of experiment: Receptor affinity (radioligand binding), A1, [3H]CHA. Set-up: species or system bovine. Particulars: for Ki: [3H]CHA, room temperature, 2 hours, tissues listed: bovine caudate, guinea pig cortex, guinea pig striatum (only Example 13 marked guinea pig); for Selectivity Ratio (A2 Ki /A1 Ki): radioligand binding. How it is done:
as §1, §2

What is called Ki is the equilibrium dissociation constant of an inhibitor or competing ligand from its target. A higher Ki goes with weaker binding. One may read the Kb as the equilibrium dissociation constant of an antagonist, usually derived from a functional assay. `Cn1c(C#N)nc2c(N[C@H]3C[C@H]4CC[C@@H]3C4)ncnc21` (relative stereo) [Example 1, (±)-N^6-(endo-2'-norbornyl)-8-cyano-9-methyladenine] displayed a Ki on adenosine A2 receptor of 1410 nM. In addition, at adenosine A1 receptor [1], the “Selectivity Ratio (A2 KB /A1 KB)” value was determined as 46 and the Kb was 81 nM. Moreover, at adenosine A1 receptor [2], the Ki was 3.89 nM and the “Selectivity Ratio (A2 Ki /A1 Ki)” value turned out to be 362.

Consider `Cn1c(C(N)=O)nc2c(N[C@H]3C[C@H]4CC[C@@H]3C4)ncnc21` (relative stereo) [Example 2, (±)-N^6-(endo-2'-norbornyl)-8-amido-9-methyladenine], for which, at adenosine A2 receptor, the Ki was 3550 nM. Further, at adenosine A1 receptor [1], the “Selectivity Ratio (A2 KB /A1 KB)” value is recorded as over 390 and the Kb was 257 nM. For the same compound, at adenosine A1 receptor [2], the affinity, expressed as Ki, was 12.9 nM and the “Selectivity Ratio (A2 Ki /A1 Ki)” value was 275.

The compound `CSc1nc2c(N[C@H]3C[C@H]4CC[C@@H]3C4)ncnc2n1C` (relative stereo) [Example 3, (±)-N^6-[endo-2'-norbornyl]-8-methylthio-9-methyladenine] gave a Ki at adenosine A2 receptor of 398 nM. On adenosine A1 receptor [1], the “Selectivity Ratio (A2 KB /A1 KB)” value is over 1540 and the Kb was 65 nM. On adenosine A1 receptor [2], the inhibitory constant (Ki) came to 6.03 nM and the “Selectivity Ratio (A2 Ki /A1 Ki)” value turned out to be 66.

Compound `COc1nc2c(N[C@H]3C[C@H]4CC[C@@H]3C4)ncnc2n1C` (relative stereo) [Example 4, (±)-N^6-(endo-2'-norbornyl)-8-methoxy-9-methyladenine] gave a Ki on adenosine A2 receptor of 513 nM. Also, on adenosine A1 receptor [1], the “Selectivity Ratio (A2 KB /A1 KB)” value is 250 and the Kb stood at 105 nM. At adenosine A1 receptor [2], the Ki stood at 12 nM and the “Selectivity Ratio (A2 Ki /A1 Ki)” value was found to be 43.

For the compound `CN(C)c1nc2c(N[C@H]3C[C@H]4CC[C@@H]3C4)ncnc2n1C` (relative stereo) [Example 5, (+)-N^6-(endo-2'-norbornyl)-8-dimethylamino-9-methyladenine], affinity on adenosine A2 receptor was put at a Ki of 617 nM. Besides, on adenosine A1 receptor [1], the “Selectivity Ratio (A2 KB /A1 KB)” value turned out to be 362 and the antagonist equilibrium constant (Kb) turned out to be 110 nM. In addition, at adenosine A1 receptor [2], the affinity, expressed as Ki, was 3.71 nM and the “Selectivity Ratio (A2 Ki /A1 Ki)” value was found to be 166.

For `Cn1c(N2CCOCC2)nc2c(N[C@H]3C[C@H]4CC[C@@H]3C4)ncnc21` (relative stereo) [Example 6], the Ki on adenosine A2 receptor was over 10000 nM; at adenosine A1 receptor [2], 24 nM. The “Selectivity Ratio (A2 Ki /A1 Ki)” value at adenosine A1 receptor [2] was over 417.

The compound `Cn1c(N2CCCC2)nc2c(N[C@H]3C[C@H]4CC[C@@H]3C4)ncnc21` (relative stereo) [Example 7] gave a Ki on adenosine A2 receptor of over 10000 nM. On adenosine A1 receptor [2], the Ki came out at 19 nM and the “Selectivity Ratio (A2 Ki /A1 Ki)” value is listed as over 526.

At adenosine A2 receptor, `Cn1c(N2CCSCC2)nc2c(N[C@H]3C[C@H]4CC[C@@H]3C4)ncnc21` (relative stereo) [Example 9] came in with an inhibition constant (Ki) of 10000 nM. Also, on adenosine A1 receptor [2], affinity was put at a Ki of 7.94 nM and the “Selectivity Ratio (A2 Ki /A1 Ki)” value is on record as 1,259.

On to `CCCCN(C)c1nc2c(N[C@H]3C[C@H]4CC[C@@H]3C4)ncnc2n1C` (relative stereo) [Example 11], for which, at adenosine A2 receptor, the Ki was found to be 11000 nM. At adenosine A1 receptor [2], affinity was put at a Ki of 45.8 nM and the “Selectivity Ratio (A2 Ki /A1 Ki)” value is given as 240.

For the compound `Cn1c(N2CCOCC2)nc2c(N[C@H]3C[C@@H]4C[C@H]3C[C@@H]4O)ncnc21` (relative stereo) [Example 25], at adenosine A2 receptor, the Ki was over 10000 nM. In addition, at adenosine A1 receptor [2], the affinity corresponds to a Ki of 19 nM and the “Selectivity Ratio (A2 Ki /A1 Ki)” value is over 526.

Turning to `CC(C)Nc1nc2c(N[C@@H]3C[C@H]4C[C@@H]3C[C@H]4O)ncnc2n1C` (relative stereo) [Example 26], the Ki on adenosine A2 receptor stood at 5750 nM; at adenosine A1 receptor [2] it was 9.55 nM. Besides, on adenosine A1 receptor [2], the “Selectivity Ratio (A2 Ki /A1 Ki)” value is reported as 602.

The compound `Cn1c(Br)nc2c(N[C@@H]3C[C@H]4C[C@@H]3C[C@@H]4O)ncnc21` (relative stereo) [Example 27] registered a Ki at adenosine A2 receptor of 661 nM. For the same compound, at adenosine A1 receptor [2], the Ki stood at 5.01 nM and the “Selectivity Ratio (A2 Ki /A1 Ki)” value was found to be 132.

For the compound `CN(C)c1nc2c(N[C@@H]3C[C@@H]4CC(=O)[C@H]3C4)ncnc2n1C` (relative stereo) [Example 28], the Ki at adenosine A2 receptor is 4570 nM. Moreover, on adenosine A1 receptor [2], affinity was put at a Ki of 8.31 nM and the “Selectivity Ratio (A2 Ki /A1 Ki)” value was determined as 550.

`Cn1cnc2c(N[C@@H]3C[C@H]4C[C@@H]3CC4=O)ncnc21` (relative stereo) [Example 29, (±)-N^6-[endo-2'-aminonorbornan-5-one]-9-methyladenine]: the Ki on adenosine A2 receptor is over 10000 nM. In addition, at adenosine A1 receptor [2], the Ki stood at 501 nM and the “Selectivity Ratio (A2 Ki /A1 Ki)” value is listed as over 20.

Take `Cn1cnc2c(N[C@H]3C[C@H]4C[C@@H]3CC4=O)ncnc21` (relative stereo) [Example 33]: on adenosine A2 receptor, the Ki is 11500 nM. Moreover, on adenosine A1 receptor [2], the inhibitory constant (Ki) was 42.7 nM and the “Selectivity Ratio (A2 Ki /A1 Ki)” value worked out at 269.

`Cn1cnc2c(N[C@H]3C[C@@H]4CC(=O)[C@H]3C4)ncnc21` (relative stereo) [Example 34]: the results for the Ki on adenosine A2 receptor and on adenosine A1 receptor [2] were 15100 nM and 69.2 nM, respectively. For the same compound, the “Selectivity Ratio (A2 Ki /A1 Ki)” value on adenosine A1 receptor [2] stood at 218.

Turning to `Cn1cnc2c(N[C@H]3C[C@H]4C[C@@H]3[C@H](O)C4)ncnc21` (relative stereo) [Example 35], the Ki on adenosine A2 receptor worked out at 35500 nM. For the same compound, at adenosine A1 receptor [2], the affinity corresponds to a Ki of 295 nM and the “Selectivity Ratio (A2 Ki /A1 Ki)” value came out at 120.

Compound `Cn1cnc2c(N[C@H]3C[C@H]4C[C@@H]3c3ccc(O)cc34)ncnc21` (relative stereo) [Example 37, (±)-N^6-(exo-2'-amino-6'-hydroxybenzonorbornyl)-9-methyladenine] returned a Ki on adenosine A2 receptor of 4570 nM. Besides, on adenosine A1 receptor [2], the affinity, expressed as Ki, was 11.5 nM and the “Selectivity Ratio (A2 Ki /A1 Ki)” value turned out to be 397.

`CCCn1cnc2c(N[C@@H]3C[C@H]4C[C@@H]3C[C@H]4O)ncnc21` (relative stereo) [Example 42] registered a Ki on adenosine A2 receptor of 6460 nM. On adenosine A1 receptor [2], affinity was put at a Ki of 28.8 nM and the “Selectivity Ratio (A2 Ki /A1 Ki)” value stood at 224.

Compound `CCCn1cnc2c(N[C@@H]3C[C@H]4C[C@@H]3C[C@@H]4O)ncnc21` (relative stereo) [Example 43] came in with a Ki at adenosine A2 receptor of over 10000 nM. Besides, on adenosine A1 receptor [2], the Ki was found to be 257 nM and the “Selectivity Ratio (A2 Ki /A1 Ki)” value is over 39.

With `CC(C)n1cnc2c(N[C@@H]3C[C@H]4C[C@@H]3CC4=O)ncnc21` (relative stereo) [Example 44], affinity at adenosine A2 receptor was put at a Ki of 21400 nM. Further, on adenosine A1 receptor [2], the affinity corresponds to a Ki of 251 nM and the “Selectivity Ratio (A2 Ki /A1 Ki)” value came out at 85.

Regarding `CC(C)n1cnc2c(N[C@@H]3C[C@H]4C[C@@H]3C[C@H]4O)ncnc21` (relative stereo) [Example 45], the inhibition constant (Ki) at adenosine A2 receptor was over 10000 nM. For the same compound, on adenosine A1 receptor [2], the affinity corresponds to a Ki of 295 nM and the “Selectivity Ratio (A2 Ki /A1 Ki)” value is given as over 34.

At adenosine A2 receptor, `CC(C)n1cnc2c(N[C@@H]3C[C@H]4C[C@@H]3C[C@@H]4O)ncnc21` (relative stereo) [Example 46] displayed a Ki of over 10000 nM. Besides, at adenosine A1 receptor [2], the inhibition constant (Ki) stood at 295 nM and the “Selectivity Ratio (A2 Ki /A1 Ki)” value is over 34.

For `CCN(CC)c1nc2c(NC3CCCC3)ncnc2n1C` [Example 14], the Ki was determined as 436 nM on adenosine A2 receptor and 3.72 nM on adenosine A1 receptor [2]. Moreover, the “Selectivity Ratio (A2 Ki /A1 Ki)” value at adenosine A1 receptor [2] turned out to be 117.

For the compound `Cn1c(N2CCOCC2)nc2c(NC3CCCC3)ncnc21` [Example 15], the Ki on adenosine A2 receptor was over 10000 nM; at adenosine A1 receptor [2] it was 42 nM. Besides, the “Selectivity Ratio (A2 Ki /A1 Ki)” value on adenosine A1 receptor [2] was over 238.
